The assay has as its target T1, human mitochondrial DNA polymerase γ (Homo sapiens, UniProt P54098).
T1 sequence (P54098 1-1239): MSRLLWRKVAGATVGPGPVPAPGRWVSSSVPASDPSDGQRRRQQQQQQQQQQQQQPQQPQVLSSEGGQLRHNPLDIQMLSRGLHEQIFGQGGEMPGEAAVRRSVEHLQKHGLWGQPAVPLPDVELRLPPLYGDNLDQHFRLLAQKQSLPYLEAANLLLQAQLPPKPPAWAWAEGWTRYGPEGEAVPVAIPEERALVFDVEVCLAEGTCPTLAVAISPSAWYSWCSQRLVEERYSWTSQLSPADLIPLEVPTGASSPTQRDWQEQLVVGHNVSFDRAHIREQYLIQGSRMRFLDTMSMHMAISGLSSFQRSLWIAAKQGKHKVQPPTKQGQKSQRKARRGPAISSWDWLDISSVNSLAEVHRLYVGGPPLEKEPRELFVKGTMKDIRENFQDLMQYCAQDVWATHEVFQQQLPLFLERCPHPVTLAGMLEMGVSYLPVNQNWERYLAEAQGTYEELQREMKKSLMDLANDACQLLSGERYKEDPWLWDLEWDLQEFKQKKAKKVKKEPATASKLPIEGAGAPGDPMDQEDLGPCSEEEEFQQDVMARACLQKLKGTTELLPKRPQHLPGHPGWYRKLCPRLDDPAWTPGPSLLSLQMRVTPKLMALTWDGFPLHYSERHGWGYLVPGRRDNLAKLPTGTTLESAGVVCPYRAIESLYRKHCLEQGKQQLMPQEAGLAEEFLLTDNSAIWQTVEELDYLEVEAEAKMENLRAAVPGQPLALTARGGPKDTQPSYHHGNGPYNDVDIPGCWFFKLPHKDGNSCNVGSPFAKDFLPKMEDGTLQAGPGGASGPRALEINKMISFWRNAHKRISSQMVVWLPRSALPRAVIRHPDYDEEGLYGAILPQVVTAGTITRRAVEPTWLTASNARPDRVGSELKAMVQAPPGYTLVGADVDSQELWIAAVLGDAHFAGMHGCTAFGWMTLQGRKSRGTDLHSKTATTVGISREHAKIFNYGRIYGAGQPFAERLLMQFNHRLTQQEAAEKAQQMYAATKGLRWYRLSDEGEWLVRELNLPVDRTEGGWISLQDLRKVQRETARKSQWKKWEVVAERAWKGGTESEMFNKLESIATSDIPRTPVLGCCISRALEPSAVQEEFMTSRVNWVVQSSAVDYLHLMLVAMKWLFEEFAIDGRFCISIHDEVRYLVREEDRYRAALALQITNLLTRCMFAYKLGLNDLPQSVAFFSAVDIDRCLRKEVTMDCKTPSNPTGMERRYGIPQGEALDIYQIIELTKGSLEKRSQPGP
Put plainly: Human mitochondrial DNA polymerase γ inhibition assay. As to conditions: highest concentration tested 200 µM. Format: biochemical. The protocol:
The activities of human DNA polymerases α, β, and γ were measured in radiolabeled nucleotide incorporation assays. TP was prepared as a 10-point titration with 3-fold serial dilution in water. Reaction buffers for the DNA polymerase α and β assays both contained 20 mM Tris pH 7.5, 10 mM MgCl2, 50 μM EDTA, 200 μg/mL bovine serum albumin (BSA), 2 mM dithiothreitol (DTT), 1.6 μM each of dNTP (dATP, dCTP, dGTP, and dTTP), 20 μCi/mL [α33P]dATP, 0.1 mg/mL gapped activated fish sperm DNA template, test compound, and 0.005 U/μL DNA polymerase α or 0.0025 U/μL DNA polymerase β. The reaction buffer for DNA polymerase γ contained 20 mM Tris pH 8, 10 mM MgCl2, 50 mM KCl, 100 μg/mL BSA, 2 mM β-mercaptoethanol, 10 μM of each dNTP (dATP, dCTP, dGTP, and dTTP), 20 μCi/mL [α33P]dATP, 0.04 mg/mL gapped activated fish sperm DNA template, test compound, and 0.0003 μg/μL DNA polymerase γ. The 50-μL reactions were incubated at room temperature for 30 min (for β and γ) or 90 min (for α) before terminating with the addition of 50 μL 500 mM EDTA. The reaction mixtures were transferred to a Millipore DE81 filter plate (EMD Millipore; Hayward, CA), washed with 0.5 M sodium phosphate pH 7.0, and dried. After addition of 40 μL scintillant to each well, the incorporation of labeled dATP was determined with a microplate counter (TopCount NXT HTS; PerkinElmer, Shelton, CA, USA).

`C#C[C@]1(COP(=O)(O)OP(=O)(O)OP(=O)(O)O)O[C@@H](n2ccc3c(N)nc(Cl)nc32)C[C@@H]1O` [MK-8527-TP]: the Inhibitory activity entry is “no inhibitory activity”.
